For series [1], the target named is T1, 11-beta-hydroxysteroid dehydrogenase type 2 (Homo sapiens, UniProt P80365).
T1 sequence (P80365 whole entry): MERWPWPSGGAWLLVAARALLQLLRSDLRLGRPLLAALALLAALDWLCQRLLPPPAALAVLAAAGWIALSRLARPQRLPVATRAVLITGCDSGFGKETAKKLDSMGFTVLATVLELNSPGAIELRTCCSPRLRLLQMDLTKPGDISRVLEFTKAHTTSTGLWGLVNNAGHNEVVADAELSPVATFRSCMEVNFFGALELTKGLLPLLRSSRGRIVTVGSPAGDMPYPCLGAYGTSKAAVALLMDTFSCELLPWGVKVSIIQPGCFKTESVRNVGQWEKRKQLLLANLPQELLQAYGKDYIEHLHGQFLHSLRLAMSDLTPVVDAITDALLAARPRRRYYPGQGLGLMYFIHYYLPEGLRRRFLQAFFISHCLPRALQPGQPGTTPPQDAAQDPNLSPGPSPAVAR
The series is described as follows: (§1) Inhibition of 11beta-HSD2 in human kidney microsomes using [3H]-cortisol as substrate assessed as formation of cortisone at 100 uM after 30 mins by radiometric analysis relative to control. The arrangement: species or system Microsome.

In series [2] the target is T2, 11-beta-hydroxysteroid dehydrogenase 1 (Homo sapiens, UniProt P28845). The series is described as follows: Inhibition of 11beta-HSD1 in human liver microsomes using [3H]-cortisone as substrate assessed as formation of cortisol after 60 to 90 mins by radiometric analysis. On the set-up: species or system Microsome.
Target sequence in this assay (P28845 whole entry): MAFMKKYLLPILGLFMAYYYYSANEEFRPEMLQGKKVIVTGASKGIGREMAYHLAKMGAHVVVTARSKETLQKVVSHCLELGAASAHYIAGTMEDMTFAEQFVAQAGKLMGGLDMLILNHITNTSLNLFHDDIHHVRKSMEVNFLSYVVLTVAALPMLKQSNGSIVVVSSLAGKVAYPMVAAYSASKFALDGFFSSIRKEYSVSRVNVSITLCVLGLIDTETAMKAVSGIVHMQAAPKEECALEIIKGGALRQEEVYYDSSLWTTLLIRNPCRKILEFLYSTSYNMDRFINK
The target of series [3] is T2, 11-beta-hydroxysteroid dehydrogenase 1. As to the kind of experiment: Inhibition of human 11beta-HSD1 transfected in CHOP cells. Type of series: cell-based.
Target sequence in this assay (P28845 whole entry): as above
In series [4] the target is T3, 11-beta-hydroxysteroid dehydrogenase 1 (Rattus norvegicus, UniProt P16232). As to the kind of experiment: Inhibition of 11beta-HSD1 in Sprague-Dawley rat leydig cells […].
Series [5] deals with J774.A1. As to the kind of experiment: (§2) Antiinflammatory activity in mouse J774A1 cells assessed as LPS-induced TNFalpha production at 10 uM incubated 2 hrs prior to LPS challenge measured after 24 hrs by ELISA relative to vehicle-treated control. Type of series: functional. Background: In an ELISA, binding on a coated surface is turned into a signal by an enzyme label.
In series [6] the target is T3, 11-beta-hydroxysteroid dehydrogenase 1. The series is described as follows: Inhibition of 11beta-HSD1 in rat testis microsomes using [3H]-11-DHC as substrate assessed as formation of CORT after 60 to 90 mins by radiometric analysis. The arrangement: species or system Microsome.
Series [7] has as its target T4, 11-beta-hydroxysteroid dehydrogenase type 2 (Homo sapiens) (UniProt P80365).
T4 sequence (whole entry): T1 sequence (P80365 whole entry)
The description is as §1. To be noted: Microsome.

Series [8] addresses T5, 11-beta-hydroxysteroid dehydrogenase type 2 (Rattus norvegicus) (UniProt P50233).
T5 sequence (whole entry): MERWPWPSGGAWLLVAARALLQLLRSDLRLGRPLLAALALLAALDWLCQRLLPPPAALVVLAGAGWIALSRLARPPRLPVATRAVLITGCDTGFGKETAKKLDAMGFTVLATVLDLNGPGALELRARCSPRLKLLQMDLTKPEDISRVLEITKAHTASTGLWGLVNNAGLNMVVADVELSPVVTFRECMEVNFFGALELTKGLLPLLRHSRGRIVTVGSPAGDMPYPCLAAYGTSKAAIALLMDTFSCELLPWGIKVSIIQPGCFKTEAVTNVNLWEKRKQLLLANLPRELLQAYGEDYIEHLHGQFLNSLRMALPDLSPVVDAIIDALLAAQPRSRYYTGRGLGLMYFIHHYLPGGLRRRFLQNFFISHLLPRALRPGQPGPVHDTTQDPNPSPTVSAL
The series is described as follows: Inhibition of 11beta-HSD2 in rat kidney microsomes using [3H]-CORT as substrate assessed as formation of 11-DHC at 100 uM after 30 mins by radiometric analysis relative to control. To be noted: Microsome.

The target in series [9] is T2, 11-beta-hydroxysteroid dehydrogenase 1. The series is described as follows: Ratio of curcumin IC50 to compound IC50 for human 11beta-HSD1 transfected in CHOP cells. Type of series: cell-based.
Target sequence in this assay (P28845 whole entry, looked up): as the sequence (P28845 whole entry) above
In series [10] the target is 11-beta-hydroxysteroid dehydrogenase 1 (Rattus norvegicus) (UniProt P16232). As to the kind of experiment: Inhibition of 11beta-HSD1 in rat testis microsomes using [3H]-11-DHC as substrate assessed as formation of CORT at 100 uM after 60 to 90 mins by radiometric analysis relative to control. Conditions: Microsome.
Series [11] in a line: as §2. Conditions: J774.A1. Type of series: functional.
The nature of series [12]: Cytotoxicity against CHOp cells. It counts as cell-based, Cricetulus griseus. To be noted: chinese hamster.
A short description of series [13]: Cytotoxicity against rat leydig cells. It counts as cell-based.
The target in series [14] is T2, 11-beta-hydroxysteroid dehydrogenase 1. As to the kind of experiment: Inhibition of human 11beta-HSD1 transfected in CHOP cells at 100 uM relative to control. It counts as cell-based.
Target sequence in this assay (P28845 whole entry, looked up): as the sequence (P28845 whole entry) above
Series [15] deals with 11-beta-hydroxysteroid dehydrogenase 1 (Rattus norvegicus) (UniProt P16232). As to the kind of experiment: Inhibition of 11beta-HSD1 in Sprague-Dawley rat leydig cells […] relative to control. To be noted: 100 uM.
In series [16] the target is T2, 11-beta-hydroxysteroid dehydrogenase 1. As to the kind of experiment: Inhibition of 11beta-HSD1 in human liver microsomes using [3H]-cortisone as substrate assessed as formation of cortisol at 100 uM after 60 to 90 mins by radiometric analysis relative to control. Conditions: Microsome. (In general: Liver microsomes are a subcellular fraction often used to study metabolism.)
Target sequence in this assay (P28845 whole entry, looked up): as the sequence (P28845 whole entry) above

Series [17] shares this target. As to the kind of experiment: Competitive inhibition of 11beta-HSD1 in human liver microsomes at 1 to 10 uM by Lineweaver-burk plot analysis in presence of cortisone. Conditions: Microsome.
Target sequence in this assay (P28845 whole entry, looked up): as the sequence (P28845 whole entry) above

Calls of active or inactive are those of the source. The rule behind the calls is not given here.

The values below come from ChEMBL document CHEMBL2401685 (Bioorg Med Chem Lett, 2013).

T3 sequence (P16232 whole entry): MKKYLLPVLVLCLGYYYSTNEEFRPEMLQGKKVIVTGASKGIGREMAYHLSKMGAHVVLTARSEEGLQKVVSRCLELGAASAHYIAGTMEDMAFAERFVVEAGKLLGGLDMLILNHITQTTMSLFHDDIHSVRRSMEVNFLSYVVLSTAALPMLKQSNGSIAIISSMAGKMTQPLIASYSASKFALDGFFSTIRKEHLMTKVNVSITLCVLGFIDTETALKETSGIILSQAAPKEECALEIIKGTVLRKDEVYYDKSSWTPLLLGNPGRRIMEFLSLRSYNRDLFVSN
11-beta-hydroxysteroid dehydrogenase 1 (Rattus norvegicus), sequence (P16232 whole entry, looked up): as the sequence (P16232 whole entry) above

The IC50 is the concentration at which inhibition is half-maximal. The inhibition is the relative decrease from the control value, in per cent. Consider `COc1cc(/C=C/C(=O)CC(=O)/C=C/c2ccc(O)c(OC)c2)ccc1O` [CURCUMIN], for which the IC50 in series [1] was determined as 15.7 µM; in series [2] it was 16 µM; in series [3], 4.5 µM; in series [4], 3.92 µM; in series [6], 4.12 µM. The inhibition result in [5] is “inactive”.

With `O=C1/C(=C/c2ccc(F)cc2)CC/C1=C\c1ccc(F)cc1`, the inhibition in series [7] is 26%; in [8], 9%. The IC50 in [2] was determined as 17.4 µM; in [3] it was 0.31 µM; in series [4], 3.47 µM; in [6] it was 22 µM. The Ratio IC50 in series [9] worked out at 9. The inhibition result in series [5] is “inactive”.

As to `O=C(/C=C/c1ccc(O)cc1)/C=C/c1ccc(O)cc1`, the inhibition in series [7] stood at 44%; in series [8], 7%; in series [10], 41%. For the same compound, the results for the IC50 in series [2], in series [3] and in series [4] were 4.42 µM, 0.832 µM and 0.986 µM, respectively. In [9], the Ratio IC50 came out at 5.

For `COc1cc(/C=C/C(=O)/C=C/c2ccc(O)c(OC)c2)ccc1O`, the inhibition in series [7] was determined as 39%; in series [8], 35%. In addition, the IC50 in [2] is 70.9 µM; in series [3] it was 0.257 µM; in series [4] it was 0.292 µM; in series [6] it was 16.1 µM. In addition, the Ratio IC50 in series [9] is 5.

Turning to `O=C1/C(=C/c2ccc(O)cc2)CCC/C1=C\c1ccc(O)cc1`, the inhibition worked out at 0% in series [7], 24% in [8] and 63% in series [10]. Further, the IC50 worked out at 1.94 µM in series [2], 0.195 µM in series [3] and 0.633 µM in series [4]. For the same compound, the Ratio IC50 in [9] worked out at 5.

With `O=C1/C(=C/c2ccc(F)cc2)CCC/C1=C\c1ccc(F)cc1`, the results for the inhibition in series [7] and in series [8] were 24% and 16%, respectively. Also, the IC50 in [2] was found to be 2.97 µM; in series [3], 0.263 µM; in series [4] it was 1.11 µM; in series [6], 13.5 µM. For the same compound, the Ratio IC50 in [9] turned out to be 9. The inhibition result in series [5] was “inactive”.

For `O=C1/C(=C/c2ccccc2Br)CCC/C1=C\c1ccccc1Br`, the inhibition turned out to be 33% in [7] and 39% in series [8]. Further, the IC50 stood at 1.11 µM in series [2], 0.346 µM in series [3], 0.148 µM in series [4] and 0.218 µM in series [6]. In [9], the Ratio IC50 worked out at 9. For the same compound, the inhibition at 10 µM in [11] is above 50%. The Activity result in [12] and in series [13] was “Non-toxic” in each case.

Turning to `O=C1/C(=C/c2ccccc2Br)CC/C1=C\c1ccccc1Br`, the inhibition was 36% in [7] and 22% in series [8]. In addition, the IC50 is 6.11 µM in series [2], 0.144 µM in series [3], 1.45 µM in [4] and 2.88 µM in [6]. Further, the Ratio IC50 in series [9] is 9.

In the case of `O=C1/C(=C/c2cccc(Br)c2)CC/C1=C\c1cccc(Br)c1`, the inhibition in [7] came to 23%; in series [8], 3%. The IC50 worked out at 3.51 µM in series [2], 0.097 µM in [3], 1.15 µM in series [4] and 0.599 µM in [6]. In addition, in series [9], the Ratio IC50 was determined as 9.

For the compound `COc1cc(/C=C2\CCC/C(=C\c3ccc(OC4CCCCO4)c(OC)c3)C2=O)ccc1OC1CCCCO1` (centres undefined), the inhibition in [7] stood at 6%; in series [8], 14%; in series [14] it was 40%; in series [15], 8%; in series [16] it was 37%. Moreover, in series [6], the IC50 was 65.4 µM.

For the compound `CCOc1ccc(/C=C2\CC/C(=C\c3ccc(OCC)cc3)C2=O)cc1`, the inhibition came to 6% in series [7]; 10% in series [8]; 14% in series [14]; 27% in [15]; 0% in series [10]; 14% in series [16]. The inhibition at 10 µM in series [11] is below 50%.

For the compound `O=C(/C=C/c1ccccc1Br)/C=C/c1ccccc1Br`, the inhibition in [7] came to 53%; in series [8] it was 39%. For the same compound, the IC50 stood at 0.529 µM in series [2], 0.115 µM in series [3], 0.129 µM in series [4] and 0.288 µM in [6]. Also, the Ratio IC50 in [9] was 9. In [11], the inhibition at 10 µM is above 50%. Further, the Activity result in series [12] and in [13] was “Non-toxic” throughout. The inhibition entry in series [17] was “Active”.

As for `O=C(/C=C/c1ccc(F)cc1)/C=C/c1ccc(F)cc1`, the inhibition in [7] stood at 26%; in series [8], 22%; in series [10] it was 2%; in series [16], 37%. Also, the IC50 is 0.507 µM in series [3] and 0.229 µM in series [4]. Also, the Ratio IC50 in series [9] is 9. Moreover, the inhibition entry in series [5] was “inactive”.
